Experimental data as given in US20070270488A1, “Treatment and Assays” (The Queen's University of Belfast, priority 2004, published 2007).
Where two headings read alike, the source gives them in different places.

Tests used:
Assay type in all cases: cell-based, human
[1] = system: HCT116 p53^+/+ parental cells; assay: MTT cytotoxicity assay, HCT116 p53^+/+ parental cells; conditions: 72 h
Method: (§1) Tissue culture. HCT116 p53^+/+ and p53^−/− isogenic human colon cancer cells were kindly provided by Professor Bert Vogelstein (John Hopkins University, Baltimore, Md.). Drug-resistant HCT116 sub-lines were developed in the inventors' laboratory by repeated exposure to stepwise increasing concentrations of 5-FU, CPT-11 or oxaliplatin over a period of approximately ten months. Parental and drug-resistant HCT116 cell lines were grown in McCoy's 5A medium supplemented with 10% dialysed foetal calf serum (FCS), 50 μg/ml penicillin-streptomycin, 2 mM L-glutamine and 1 mM sodium pyruvate (all from GIBCO Invitrogen Corporation, Paisley, Scotland) and maintained at 37° C. in a humidified atmosphere containing 5% CO2. 5-FU-resistant p53^+/+ and p53^−/− HCT116 cells were maintained in the presence of 2 μM and 4 μM 5-FU respectively. CPT-11-resistant p53^+/+ and p53^−/− HCT116 cells were maintained in the presence of 1 μM and 3 μM CPT-11 respectively. […] Prior to each experiment, resistant sub-lines were cultured in the absence of drug for 48 hours.
(§2) Cytotoxicity studies. Cells were seeded at 2000 cells per well in 96-well microtiter plates. After 48 hours, cells were treated with a range of concentrations of 5-FU, CPT-11 or oxaliplatin.
(§3) After 72 hours, 25 μl of MTT dye (5 mg/ml) was added to each well and the plates were incubated at 37° C. for 3 hours. Dark-blue formazan crystals formed by live cells were dissolved in 200 μl of DMSO and absorbance in individual wells was determined at 570 nm using an Emax precision microplate reader (Molecular Devices, Sunnyvale, Calif.).

[2] = system: p53^+/+ oxaliplatin-resistant HCT116 cells; assay: MTT cytotoxicity assay, p53^+/+ oxaliplatin-resistant HCT116 cells; conditions: for IC50: p53^+/+ oxaliplatin-resistant, MTT, 72 h; for increase in IC50 (72 hr) compared to parental cells: p53^+/+ oxaliplatin-resistant vs p53^+/+ parental
Method: as §1, §2, §3

[3] = system: HCT116 p53^−/− parental cells; assay: MTT cytotoxicity assay, HCT116 p53^−/− parental cells; conditions: for IC50: MTT, 72 h
Method: as §1, §2, §3

[4] = system: p53^−/− oxaliplatin-resistant HCT116 cells; assay: MTT cytotoxicity assay, p53^−/− oxaliplatin-resistant HCT116 cells; conditions: for IC50: p53^−/− oxaliplatin-resistant, MTT, 72 h; for increase in IC50 (72 hr) compared to parental cells: p53^−/− oxaliplatin-resistant vs p53^−/− parental
Method: as §1, §2, §3

[5] = system: p53^+/+ 5-FU-resistant HCT116 cells; assay: MTT cytotoxicity assay, p53^+/+ 5-FU-resistant HCT116 cells; conditions: for IC50: p53^+/+ 5-FU-resistant, MTT, 72 h
[6] = system: p53^+/+ CPT-11-resistant HCT116 cells; assay: MTT cytotoxicity assay, p53^+/+ CPT-11-resistant HCT116 cells; conditions: for IC50: p53^+/+ CPT-11-resistant, MTT, 72 h; for increase in IC50 (72 hr) compared to parental cells: p53^+/+ CPT-11-resistant vs p53^+/+ parental
[7] = system: p53^−/− 5-FU-resistant HCT116 cells; assay: MTT cytotoxicity assay, p53^−/− 5-FU-resistant HCT116 cells; conditions: p53^−/− 5-FU-resistant, MTT, 72 h
[8] = system: p53^−/− CPT-11-resistant HCT116 cells; assay: MTT cytotoxicity assay, p53^−/− CPT-11-resistant HCT116 cells; conditions: for IC50: p53^−/− CPT-11-resistant, MTT, 72 h; for increase in IC50 (72 hr) compared to parental cells: p53^−/− CPT-11-resistant vs p53^−/− parental
[9] = system: p53^+/+ HCT116 parental cells; assay: Flow cytometry cell cycle/apoptosis, p53^+/+ HCT116 parental cells; conditions: 72 hours
[10] = system: p53^+/+ oxaliplatin-resistant HCT116 cells; assay: Flow cytometry cell cycle/apoptosis, p53^+/+ oxaliplatin-resistant cells; conditions: 72 hours
Method: as §1
(§4) Flow cytometry. Cells were seeded at 5×10^4 cells per well in 6-well plates. After 48 hours, cells were treated with a range of concentrations of 5-FU, CPT-11 or oxaliplatin. Seventy-two hours post-treatment, cells were harvested in 5 ml of 1× PBS/0.5 mM EDTA and pelleted by centrifugation at 1000 rpm/4° C. for 5 minutes. Cell pellets were washed once with 1× PBS/1% FCS, fixed in 70% ethanol and stained with propidium iodide. Analyses were performed on a Beckman Coulter Epics XL flow cytometer (Miami, Fla.).

[11] = system: p53^−/− HCT116 parental cells; assay: Flow cytometry cell cycle/apoptosis, p53^−/− HCT116 parental cells; conditions: 72 hours; for drug-induced apoptosis in p53^−/− compared to p53^+/+ parental cells: range of concentrations
[12] = system: p53^−/− oxaliplatin-resistant HCT116 cells; assay: Flow cytometry cell cycle/apoptosis, p53^−/− oxaliplatin-resistant cells; conditions: same concentrations as parental (1 μM, 5 μM)
Method: as §1
Flow cytometry. Cells were seeded at 5×10^4 cells per well in 6-well plates. After 48 hours, cells were treated with a range of concentrations of 5-FU, CPT-11 or oxaliplatin. Seventy-two hours post-treatment, cells were harvested in 5 ml of 1× PBS/0.5 mM EDTA and pelleted by centrifugation at 1000 rpm/4° C. for 5 minutes. […]

p53^+/+ HCT116 cells = assay: PARP cleavage immunoblotting, p53^+/+ HCT116 cells; conditions: 48 hours, Western blot
p53^−/− HCT116 cells = assay: PARP cleavage immunoblotting, p53^−/− HCT116 cells; conditions: 48 hours, Western blot
[13] = system: p53^+/+ 5-FU-resistant HCT116 cells; assay: Flow cytometry cell cycle/apoptosis, p53^+/+ 5-FU-resistant cells; conditions: p53^+/+ 5-FU-resistant cell line, data not shown
[14] = system: p53^+/+ CPT-11-resistant HCT116 cells; assay: Flow cytometry cell cycle/apoptosis, p53^+/+ CPT-11-resistant cells; conditions: 72 hours
Method: as §1, §4

[15] = system: p53^−/− CPT-11-resistant HCT116 cells; assay: Flow cytometry cell cycle/apoptosis, p53^−/− CPT-11-resistant cells
[16] = HCT116 p53^+/+ parental, read-out: IC50(72 h)
[17] = HCT116 p53^−/− parental, read-out: IC50(72 h)
[18] = parental HCT116 p53^−/− vs p53^+/+
[19] = Homo sapiens, HCT-116, read-out: IC50(72 h)

N.N.[Cl][Pt][Cl] [cisplatin]
IC50 [1, 16]: 5.4 µM | IC50 ([2]; read-out: IC50(72 h)): 7.3 µM | IC50 [3, 17]: 5.7 µM | IC50 ([4]; read-out: IC50(72 h)): 6.7 µM

N.N.O=C([O-])C1(C(=O)[O-])CCC1.[Pt+2] [carboplatin]
IC50 [1, 16]: 76 µM | increase in IC50 (72 hr) compared to parental cells [2]: ~2 fold | IC50 ([2]; read-out: IC50(72 h)): 176 µM | IC50 [3, 17]: 78.7 µM | increase in IC50 (72 hr) compared to parental cells [4]: ~2 fold | IC50 ([4]; read-out: IC50(72 h)): 141 µM

O=C1[O][Pt]2([NH][C@@H]3CCCC[C@H]3[NH]2)[O]C1=O [oxaliplatin]
IC50 [1, 16]: 0.3 µM | IC50 ([5]; read-out: IC50(72 h)): 0.3 µM | increase in IC50 (72 hr) compared to parental cells [2]: 31.0 fold | IC50 ([2]; read-out: IC50(72 h)): 9.4 µM | IC50 ([6]; read-out: IC50(72 h)): 0.3 µM | IC50 [3, 17]: 1.7 µM | increase in IC50 (72 h) dose in p53^−/− compared to p53^+/+ cells [3, 18]: 5.7 fold | IC50 ([7]; read-out: IC50(72 h)): 1.9 µM | increase in IC50 (72 hr) compared to parental cells [4]: 10.5 fold | IC50 ([4]; read-out: IC50(72 h)): 17.9 µM | IC50 ([8]; read-out: IC50(72 h)): 1.7 µM | cell cycle distribution ([9]; 0.5 μM): majority of cells had arrested in G2/M-phase | proportion of apoptotic cells ([9]; 1 μM and 5 μM, ~2% in control samples): 40-50% | cell cycle distribution ([10]; 0.5 μM and 1 μM): unaffected | cell cycle distribution ([10]; 5 μM): majority of cells were arrested in S-phase | induction of apoptosis compared to parental cells [10]: dramatically attenuated | cell cycle distribution ([11]; 1 μM): S-phase block and a moderate increase in the polyploid fraction | cell cycle distribution ([11]; 5 μM): majority of cells were arrested in G2/M phase | drug-induced apoptosis in p53^−/− compared to p53^+/+ parental cells [11]: significantly attenuated | cell cycle distribution [12]: no change in cell cycle distribution | PARP cleavage (p53^+/+ HCT116 cells; 1 μM): observed | PARP cleavage (p53^−/− HCT116 cells; 1 μM): not

CCc1c2c(nc3ccc(OC(=O)N4CCC(N5CCCCC5)CC4)cc13)-c1cc3c(c(=O)n1C2)COC(=O)[C@]3(O)CC [CPT-11, irinotecan]
IC50 ([1]; Homo sapiens, HCT-116, HCT116 p53^+/+ parental, read-out: IC50(72 h)): 3.2 µM | IC50 [5, 19]: 7.2 µM | increase in IC50 (72 hr) compared to parental cells ([5]; p53^+/+ 5-FU-resistant vs p53^+/+ parental): ~2 fold | IC50 [2, 19]: 2.9 µM | IC50 [6, 19]: 30.3 µM | increase in IC50 (72 hr) compared to parental cells [6]: 10.0 fold | IC50 ([3]; Homo sapiens, HCT-116, HCT116 p53^−/− parental, read-out: IC50(72 h)): 3.1 µM | IC50 (72 h) in parental p53^+/+ and p53^−/− cells compared [3, 18]: almost identical | IC50 [7, 19]: 2.8 µM | IC50 [4, 19]: 3.5 µM | IC50 [8, 19]: 200 µM | increase in IC50 (72 hr) compared to parental cells [8]: 65.0 fold | cell cycle distribution ([9]; 0.5 μM): accumulation of cells in S-phase | cell cycle distribution ([9]; 1 μM): majority of cells were now arrested in G2/M | cells in the sub-G0/G1 apoptotic phase ([9]; 5 μM): ~40% | cross-resistance examined using flow cytometry [13]: not apparent | cell cycle distribution ([14]; 0.5 μM and 1 μM): almost completely insensitive | cell cycle distribution ([14]; 5 μM): significant G2/M arrest and accumulation of polyploid cells | degree of apoptosis ([14]; 5 μM): ~14% | cell cycle distribution ([11]; 0.5 μM and 1 μM): dramatic G2/M cell cycle arrest | apoptotic cells ([11]; 5 μM, ~2% in control samples): ~35% | drug-induced apoptosis in p53^−/− compared to p53^+/+ parental cells [11]: almost identical levels of apoptosis | cell cycle distribution ([15]; 0.5 μM and 1 μM): no G2/M arrest was observed | apoptosis ([15]; 5 μM, 72 hours): no apoptosis was observed | PARP cleavage (p53^+/+ HCT116 cells; 5 μM): evident | PARP cleavage (p53^−/− HCT116 cells; 5 μM): evident

CCc1c2c(nc3ccc(O)cc13)-c1cc3c(c(=O)n1C2)COC(=O)[C@]3(O)CC [SN-38]
IC50 ([1]; p53^+/+ Parental, read-out: SN-38 IC50(72 h)): 0.0056 µM | IC50 ([5]; read-out: SN-38 IC50(72 h)): 0.0065 µM | IC50 ([2]; read-out: SN-38 IC50(72 h)): 0.0037 µM | increase in IC50 (72 hr) compared to parental cells [6]: ~10 fold | IC50 ([6]; read-out: SN-38 IC50(72 h)): 0.04 µM | IC50 ([3]; p53^−/− Parental, read-out: SN-38 IC50(72 h)): 0.0042 µM | IC50 (72 h) in parental p53^+/+ and p53^−/− cells compared [3, 18]: similar | IC50 ([7]; read-out: SN-38 IC50(72 h)): 0.0036 µM | IC50 ([4]; read-out: SN-38 IC50(72 h)): 0.0033 µM | increase in IC50 (72 hr) compared to parental cells [8]: ~100 fold | IC50 ([8]; read-out: SN-38 IC50(72 h)): 0.54 µM
